In ChEMBL document CHEMBL2380247, “Synthesis and biological evaluation of novel aliphatic amido-quaternary ammonium salts for anticancer chemotherapy: part II” (2013):
The source made the active and inactive calls. The calls are words filed in the database; no cut-off is given here.

Assays:
[1] = system: NCI-H23; assay: Antiproliferative activity against human NCI-H23 cells at 10 uM by SRB assay; assay type: functional
[2] = system: NCI-H23; assay: Antiproliferative activity against human NCI-H23 cells at 3 uM by SRB assay; assay type: functional
[3] = system: PC-3; assay: Antiproliferative activity against human PC3 cells by SRB assay; assay type: functional
[4] = system: NUGC-3; assay: Antiproliferative activity against human NUGC3 cells at 0.3 uM by SRB assay; assay type: functional
[5] = system: NUGC-3; assay: Antiproliferative activity against human NUGC3 cells at 3 uM by SRB assay; assay type: functional
[6] = system: ACHN; assay: Antiproliferative activity against human ACHN cells at 0.3 uM by SRB assay; assay type: functional
[7] = system: HCT-15; assay: Antiproliferative activity against human HCT15 cells at 3 uM by SRB assay; assay type: functional
[8] = system: HCT-15; assay: Antiproliferative activity against human HCT15 cells at 1 uM by SRB assay; assay type: functional
[9] = system: HCT-15; assay: Antiproliferative activity against human HCT15 cells by SRB assay; assay type: functional
[10] = system: ACHN; assay: Antiproliferative activity against human ACHN cells at 10 uM by SRB assay; assay type: functional
[11] = system: NUGC-3; assay: Antiproliferative activity against human NUGC3 cells at 1 uM by SRB assay; assay type: functional
[12] = system: MDA-MB-231; assay: Antiproliferative activity against human MDA-MB-231 cells at 0.3 uM by SRB assay; assay type: functional
[13] = system: NCI-H23; assay: Antiproliferative activity against human NCI-H23 cells by SRB assay; assay type: functional
[14] = system: HCT-15; assay: Antiproliferative activity against human HCT15 cells at 0.3 uM by SRB assay; assay type: functional
[15] = system: HCT-15; assay: Antiproliferative activity against human HCT15 cells at 0.1 uM by SRB assay; assay type: functional
[16] = system: ACHN; assay: Antiproliferative activity against human ACHN cells at 1 uM by SRB assay; assay type: functional
[17] = system: NCI-H23; assay: Antiproliferative activity against human NCI-H23 cells at 0.3 uM by SRB assay; assay type: functional
[18] = system: PC-3; assay: Antiproliferative activity against human PC3 cells at 10 uM by SRB assay; assay type: functional
[19] = system: PC-3; assay: Antiproliferative activity against human PC3 cells at 0.1 uM by SRB assay; assay type: functional
[20] = system: MDA-MB-231; assay: Antiproliferative activity against human MDA-MB-231 cells at 10 uM by SRB assay; assay type: functional
[21] = system: ACHN; assay: Antiproliferative activity against human ACHN cells by SRB assay; assay type: functional
[22] = system: PC-3; assay: Antiproliferative activity against human PC3 cells at 3 uM by SRB assay; assay type: functional
[23] = system: NCI-H23; assay: Antiproliferative activity against human NCI-H23 cells at 1 uM by SRB assay; assay type: functional
[24] = molecular target: Rho-related GTP-binding protein RhoB (Homo sapiens) (UniProt P62745); assay: Transactivation of RhoB in human HeLa cells by luciferase reporter assay; assay type: cell-based
Rho-related GTP-binding protein RhoB (Homo sapiens), sequence (P62745 whole entry): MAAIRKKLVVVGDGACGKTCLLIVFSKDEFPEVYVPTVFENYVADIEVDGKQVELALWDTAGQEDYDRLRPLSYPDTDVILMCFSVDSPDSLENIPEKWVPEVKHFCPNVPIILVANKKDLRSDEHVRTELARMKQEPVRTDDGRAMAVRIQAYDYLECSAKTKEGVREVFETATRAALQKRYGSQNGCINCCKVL

[25] = system: PC-3; assay: Antiproliferative activity against human PC3 cells at 1 uM by SRB assay; assay type: functional
[26] = system: NUGC-3; assay: Antiproliferative activity against human NUGC3 cells at 0.1 uM by SRB assay; assay type: functional
[27] = system: NCI-H23; assay: Antiproliferative activity against human NCI-H23 cells at 0.1 uM by SRB assay; assay type: functional
[28] = system: ACHN; assay: Antiproliferative activity against human ACHN cells at 0.1 uM by SRB assay; assay type: functional
[29] = system: HCT-15; assay: Antiproliferative activity against human HCT15 cells at 10 uM by SRB assay; assay type: functional
[30] = system: NUGC-3; assay: Antiproliferative activity against human NUGC3 cells by SRB assay; assay type: functional
[31] = system: MDA-MB-231; assay: Antiproliferative activity against human MDA-MB-231 cells at 0.1 uM by SRB assay; assay type: functional
[32] = system: NUGC-3; assay: Antiproliferative activity against human NUGC3 cells at 10 uM by SRB assay; assay type: functional
[33] = system: PC-3; assay: Antiproliferative activity against human PC3 cells at 0.3 uM by SRB assay; assay type: functional
[34] = system: MDA-MB-231; assay: Antiproliferative activity against human MDA-MB-231 cells by SRB assay; assay type: functional
[35] = system: ACHN; assay: Antiproliferative activity against human ACHN cells at 3 uM by SRB assay; assay type: functional
[36] = system: MDA-MB-231; assay: Antiproliferative activity against human MDA-MB-231 cells at 3 uM by SRB assay; assay type: functional
[37] = system: MDA-MB-231; assay: Antiproliferative activity against human MDA-MB-231 cells at 1 uM by SRB assay; assay type: functional

| SMILES | growth, % of control at 10 µM [1] [%] | growth, % of control at 3 µM [2] [%] | GI50 [3] [nM] | growth, % of control at 0.3 µM [4] [%] | growth, % of control at 3 µM [5] [%] | growth, % of control at 0.3 µM [6] [%] | growth, % of control at 3 µM [7] [%] | growth, % of control at 1 µM [8] [%] | GI50 [9] [nM] | growth, % of control at 10 µM [10] [%] | growth, % of control at 1 µM [11] [%] | growth, % of control at 0.3 µM [12] [%] | GI50 [13] [nM] | growth, % of control at 0.3 µM [14] [%] | growth, % of control at 0.1 µM [15] [%] | growth, % of control at 1 µM [16] [%] | growth, % of control at 0.3 µM [17] [%] | growth, % of control at 10 µM [18] [%] | growth, % of control at 0.1 µM [19] [%] | growth, % of control at 10 µM [20] [%] | further results |
| --- | --- | --- | --- | --- | --- | --- | --- | --- | --- | --- | --- | --- | --- | --- | --- | --- | --- | --- | --- | --- | --- |
| CCCCCCCCCCCCCCCC(=O)N(C)CC[N+](C)(C)C | 0 | 58 | 370 | 57.7 | -0.9 | 85.9 | 45.2 | 79.6 | 1310 | -19.1 | 26.8 | 100 | 1540 | 102 | 99.9 | 42 | 102 | -15.8 | 96 | -1.2 | GI50 [21]: 450 nM; growth, % of control at 3 µM [22]: 3.5%; growth, % of control at 1 µM [23]: 83.7%; Activity [24]: Active; growth, % of control at 1 µM [25]: 37.3%; growth, % of control at 0.1 µM [26]: 77.8%; growth, % of control at 0.1 µM [27]: 101%; growth, % of control at 0.1 µM [28]: 87.9%; growth, % of control at 10 µM [29]: 15.8%; GI50 [30]: 170 nM; growth, % of control at 0.1 µM [31]: 106%; growth, % of control at 10 µM [32]: -19.4%; growth, % of control at 0.3 µM [33]: 87.9%; GI50 [34]: 1140 nM; growth, % of control at 3 µM [35]: 31.9%; growth, % of control at 3 µM [36]: 41.4%; growth, % of control at 1 µM [37]: 81.6% |
| C=CC[N+](C)(C)CCCN(C)C(=O)CCCCCCCCCCCCC | -7.17 | 12.2 | 310 | 82.8 | 4.58 | 96.8 | 79.4 | 92.8 | > 10000 | 14.3 | 32.1 | 98.9 | 460 | 82.4 | 90.4 | 96 | 85.7 | -20.4 | 93.3 | 15.5 | GI50 [21]: 1890 nM; growth, % of control at 3 µM [22]: -10.8%; growth, % of control at 1 µM [23]: 55.6%; growth, % of control at 1 µM [25]: 35.4%; growth, % of control at 0.1 µM [26]: 80.1%; growth, % of control at 0.1 µM [27]: 88.5%; growth, % of control at 0.1 µM [28]: 104%; growth, % of control at 10 µM [29]: 53.2%; GI50 [30]: 280 nM; growth, % of control at 0.1 µM [31]: 99.8%; growth, % of control at 10 µM [32]: -1.98%; growth, % of control at 0.3 µM [33]: 82.3%; GI50 [34]: 1350 nM; growth, % of control at 3 µM [35]: 67%; growth, % of control at 3 µM [36]: 48.3%; growth, % of control at 1 µM [37]: 86.8% |
| C=CC[N+](C)(C)CC(C)(C)CNC(=O)CCCCCCCCCCCCCCCCC | -40 | 29.4 | 470 | 89.9 | 28.5 | 93.5 | 85.5 | 99 | > 10000 | 3.8 | 65.2 | 88.8 | 900 | 99.8 | 102 | 85.1 | 93.7 | -45.4 | 94.9 | 25 | GI50 [21]: 1750 nM; growth, % of control at 3 µM [22]: -27.7%; growth, % of control at 1 µM [23]: 75.3%; growth, % of control at 1 µM [25]: 33.7%; growth, % of control at 0.1 µM [26]: 92.3%; growth, % of control at 0.1 µM [27]: 92.8%; growth, % of control at 0.1 µM [28]: 93.2%; growth, % of control at 10 µM [29]: 61.7%; GI50 [30]: 770 nM; growth, % of control at 0.1 µM [31]: 94.3%; growth, % of control at 10 µM [32]: -5.72%; growth, % of control at 0.3 µM [33]: 91%; GI50 [34]: 1640 nM; growth, % of control at 3 µM [35]: 60.4%; growth, % of control at 3 µM [36]: 48.3%; growth, % of control at 1 µM [37]: 80.8% |
